Results reported in US8563241B2 (Institut de Cardiologie de Montreal, priority 2009, dated 2013).

Tests used:
[1] = Retrospective study of INR fluctuations outside the target therapeutic INR range in 1,615 patients of the MHI warfarin clinic (Rosendaal method); format: in vivo, human; conditions: post-stabilization follow up period (first six months and hospitalization periods excluded)
Description: (§1) The study was focused on the post INR-stabilization period by excluding the first six months of therapy, and further excluded hospitalization periods. […] INR fluctuations were measured according to the Rosendaal method based on linear interpolation.

[2] = Pilot genetic study of INR fluctuations in 324 post INR-stabilization atrial fibrillation patients by CYP4F2 rs2108622 and NR1I2 rs6772976 genotype; format: in vivo, human
Description: as §1
For the pilot genetic study, 324 patients with atrial fibrillation were selected, for whom therapy was started prior to Aug. 1, 2005, with a follow up of 36 months or more and with at most 70 years of age. […] Genotyping was conducted using the Sequenom technology.

Compound: CC(=O)CC(c1ccccc1)c1c(O)c2ccccc2oc1=O (stereo not shown) [warfarin]
- time above target therapeutic INR range [1]: 17.2%
- average % of the time above the patient-specific target therapeutic INR range ([2]; patients with CYP4F2 rs2108622 CC genotype): 17.1%
- average % of the time above the patient-specific target therapeutic INR range ([2]; patients with CYP4F2 rs2108622 CT genotype): 15.9%
- average % of the time above the patient-specific target therapeutic INR range ([2]; patients with CYP4F2 rs2108622 TT genotype): 29.6%
